Molecular target: T1, Recombinant human Met (c-Met) (Homo sapiens, UniProt P08581)
T1 construct: purchased Invitrogen PV3143
Assay: Inhibition of c-Met kinase activity using Transcreener FP assay
Assay type: biochemical
Conditions: Poly E4Y substrate, 28° C. 45 min, read-out: IC50, inhibition of c-Met kinase activity
Protocol: Compound dilution: dilute test articles to 5 folds of the testing concentration using 20% DMSO.
The mixture is kept on ice until use;
Prepare ATP standard curve stock as following:
3. Enzymatic reaction: in 96-well reaction plate
Add 5 μL of test article or 5 μL of 20% DMSO or 5 μL of 500 mM EDTA;
Add 10 μL of Enzyme/Substrate stock;
Add 10 μL of ATP Diluent to begin the enzyme reaction and mix on plate shaker;
Add 5 μL of 20% DMSO, 10 μL of assay buffer and 10 μL of ATP standard curve stock into standard curve wells;
Gently shake at 28° C. for 45 min.
4. Stop reaction and detect ADP
Prepare Detection Mix: According to the procedures described in the Assay kit, Alexa633 tracer, ADP antibody and stop & detect buffer were added into H2O and mixed thoroughly. Prepare Tracer Only control: According to the procedures described in the Assay kit, ADP Alexa633 tracer and stop & detect buffer were added to H2O and mixed throughly.
Prepare No Tracer control: According to the procedures described in the Assay kit, the stop & detect buffer was diluted with H2O;
Add 25 μL of detection mix, Tracer Only control and No Tracer control into corresponding wells, respectively;
The reaction plate was gently shaken at 28° C. for 1 h;
Florescence polarization (FP) was measured on TECAN F500. Excitation wavelength: 610 nm, Emission wavelength: 670 nm.
Compound well [ADP] represents the ADP concentration of the compound well. Positive control well [ADP] represents the ADP concentration of the 20% DMSO well. Conversion of mP value to ADP concentration is based on the formula which is determined by standard curve.
IC50: calculated using XL-Fit 2.0 software.

T1 sequence (P08581 956-1390 limits assumed): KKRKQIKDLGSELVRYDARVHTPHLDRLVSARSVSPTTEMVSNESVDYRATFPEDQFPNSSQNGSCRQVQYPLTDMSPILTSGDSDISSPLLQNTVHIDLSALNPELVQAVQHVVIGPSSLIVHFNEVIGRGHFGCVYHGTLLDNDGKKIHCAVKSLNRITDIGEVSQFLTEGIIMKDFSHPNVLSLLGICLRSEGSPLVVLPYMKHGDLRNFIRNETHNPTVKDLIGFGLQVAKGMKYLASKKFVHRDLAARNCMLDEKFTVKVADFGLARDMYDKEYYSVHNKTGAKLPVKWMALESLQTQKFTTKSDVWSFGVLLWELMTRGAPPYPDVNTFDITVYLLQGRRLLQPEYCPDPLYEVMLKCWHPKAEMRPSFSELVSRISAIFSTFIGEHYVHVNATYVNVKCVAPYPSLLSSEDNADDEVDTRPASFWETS

First: COCCn1cc(-c2ccc3nnn(Cc4c[nH]c5ncccc45)c3n2)cn1 [Compound 111]
Second: COCCn1cc(-c2ccc3nnn(Cc4ccc5ncccc5c4)c3n2)cn1 [Compound 93]
The IC50 of the first is lower: 1 to 100 nM for the first, 100 to 1000 nM for the second. The first is the more potent here.

Compared with COCCOc1cc(-c2ccc3nnn(Cc4ccc5ncccc5c4)c3n2)ccn1 [Compound 107], c1cnc2ccc(Cn3nnc4ccc(-c5cc[nH]n5)nc43)cc2c1 [Compound 81] is lower in IC50: 100 to 1000 nM for the first, 1 to 100 nM for the second.

COc1cccc(Nc2cnc3nnn(Cc4ccc5ncccc5c4)c3n2)n1 [Compound 197] and c1ccc(Nc2cnc3nnn(Cc4ccc5ncccc5c4)c3n2)nc1 [Compound 168] fall in the same range of IC50: 1 to 100 nM for the first, 1 to 100 nM for the second.

COCc1cnn2ccc(Cn3nnc4ncc(-c5cnn(CCO)c5)nc43)cc12 [Compound 322, 2-(4-(1-((3-(Methoxymethyl)pyrazolo[1,5-a]pyridin-5-yl)methyl)-1H-[1,2,3]triazolo[4,5-b]pyrazin-6-yl)-1H-pyrazol-1-yl)ethanol] and COC(=O)c1cnn2ccc(Cn3nnc4ncc(-c5cnn(CCO)c5)nc43)cc12 [Compound 304] fall in the same range of IC50: 1 to 100 nM for the first, 1 to 100 nM for the second.

N#CCn1cc(-c2cnc3nnn(Cc4cc5[nH]ncc5s4)c3n2)cn1 [Compound 27] and OCCn1cc(-c2cnc3nnn(Cc4cc5[nH]ncc5s4)c3n2)cn1 [Compound 13] fall in the same range of IC50: 1 to 100 nM for the first, 1 to 100 nM for the second.

CCCn1cc(-c2cnc3nnn(Cc4ccc5nccn5c4)c3n2)cn1 [Compound 47] and CCn1cc(-c2cnc3nnn(Cc4ccc5nccn5c4)c3n2)cn1 [Compound 8] fall in the same range of IC50: 1 to 100 nM for the first, 1 to 100 nM for the second.

First: c1cnc2ccc(Cn3nnc4ccc(-n5ccnc5)nc43)cc2c1 [Compound 214]
Second: c1c[nH]c(-c2ccc3nnn(Cc4ccc5ncccc5c4)c3n2)c1 [Compound 64]
The IC50 of the first is lower: 1 to 100 nM for the first, 100 to 1000 nM for the second. The first is the more potent here.

First: CNCCCn1cc(-c2ccc3nnn(Cc4ccc5ncccc5c4)c3n2)cn1 [Compound 92]
Second: CS(=O)(=O)Nc1ccc(-c2ccc3nnn(Cc4ccc5ncccc5c4)c3n2)cc1 [Compound 84]
The IC50 of the first is higher: 100 to 1000 nM for the first, 1 to 100 nM for the second. The second is the more potent here.

Clc1ccc(Nc2cnc3nnn(Cc4ccc5ncccc5c4)c3n2)nc1 [Compound 164] and Clc1ccnc(Nc2cnc3nnn(Cc4ccc5ncccc5c4)c3n2)c1 [Compound 153] fall in the same range of IC50: 1 to 100 nM for the first, 1 to 100 nM for the second.

First: COCCn1cc(-c2cnc3nnn(Cc4ccn5nccc5c4)c3n2)cn1 [Compound 268]
Second: FC(F)(F)Cn1cc(-c2cnc3nnn(Cc4ccn5nccc5n4)c3n2)cn1 [Compound 293]
The IC50 of the first is lower: 1 to 100 nM for the first, 100 to 1000 nM for the second. The first is the more potent here.

O=C(Cn1cc(-c2cnc3nnn(Cc4ccc5ncsc5c4)c3n2)cn1)NC1CC1 [Compound 24] and OCCn1cc(Nc2cnc3nnn(Cc4ccc5ncsc5c4)c3n2)cn1 [Compound 240] fall in the same range of IC50: 1 to 100 nM for the first, 1 to 100 nM for the second.

First: OCCn1cc(-c2ccc3nnn(Cc4ccc5ncnn5c4)c3n2)cn1 [Compound 126]
Second: Cn1cc(-c2ccc3nnn(Cc4ccc5nccn5c4)c3n2)cn1 [Compound 133]
The IC50 of the first is higher: 100 to 1000 nM for the first, 1 to 100 nM for the second. The second is the more potent here.

Cn1cc(-c2ccc3nnn(Cc4ccc5ncccc5c4F)c3n2)cn1 [Compound 129] and CC(C)n1cc(-c2ccc3nnn(Cc4ccc5nccn5c4)c3n2)cn1 [Compound 136] fall in the same range of IC50: 1 to 100 nM for the first, 1 to 100 nM for the second.

First: c1ccc(Sc2cnc3nnn(Cc4ccc5ncccc5c4)c3n2)nc1 [Compound 252]
Second: c1cnc2ccc(Cn3nnc4ccc(OC5CCOCC5)nc43)cc2c1 [Compound 249]
The IC50 of the first is lower: 1 to 100 nM for the first, 100 to 1000 nM for the second.

Cn1cc(-c2cnc3nnn(Cc4ccc5ncc(CO)n5c4)c3n2)cn1 [Compound 272] and CNCc1cnc2ccc(Cn3nnc4ncc(-c5cnn(C)c5)nc43)cn12 [Compound 327, N-methyl-1-(6-((6-(1-methyl-1H-pyrazol-4-yl)-1H-[1,2,3]triazolo[4,5-b]pyrazin-1-yl)methyl)imidazo[1,2-a]pyridin-3-yl)methanamine] fall in the same range of IC50: 1 to 100 nM for the first, 1 to 100 nM for the second.

First: OC1(CNc2ccc3nnn(Cc4ccc5ncccc5c4)c3n2)CCCCC1 [Compound 247]
Second: OCC1CCN(c2ccc3nnn(Cc4ccc5ncccc5c4)c3n2)CC1 [Compound 245]
The IC50 of the first is higher: 100 to 1000 nM for the first, 1 to 100 nM for the second. The second is the more potent here.

In the case of OCCn1cc(-c2cnc3nnn(Cc4ccc5ncc(CO)n5c4)c3n2)cn1 [Compound 306], the IC50 is reported as 1 to 100 nM.

From patent US11896592B2, “Certain triazolopyridines and triazolopyrazines, compositions thereof and methods of use therefor” (Hutchison Medipharma Limited, priority 2009, dated 2024)
